Results on 21 compounds are retold here after patent publication US9751876B2, “Bicyclic heterocycle derivatives for the treatment of pulmonary arterial hypertension” (Novartis AG, priority 2011, dated 2017).

Where a name gives a salt, the structure may show the parent alone.

The subject of the assay is PDGFR. The assay is described as follows: Rat A10 cell proliferation assay. The assay is classed as cell-based. The conditions noted are these: Rat A10 cells, 1% FBS, 10 ng/mL recombinant rat PDGF-BB, 68 hours with compound, CellTiter-Glo luminescence. How it is done: Compounds of Formula (I), (II) or (III) provided herein were assayed to measure their capacity to inhibit PDGFR kinases using the appropriate assay described below: PDGFR inhibition was evaluated using the Rat A10 cell proliferation.
Rat A10 Cell Proliferation Assay
Rat A10 cells (ATCC) were resuspended in DMEM supplemented with 1% FBS and 10 ng/mL recombinant rat PDGF-BB at 20,000 cells/mL. The cells were aliquoted into 384 well plates at 50 μL/well and incubated for 4 hours at 37° C. […] The plates were returned to the incubator for a further 68 hours. 25 μL of CellTiter-Glo (Promega) was added to each well and the plates were incubated on the bench for 15 minutes. Luminescence was then read using a CLIPR CCD camera (Molecular Devices).
Data were analysed using non-linear regression fitted to sigmoidal (variable slope) curves using a four parameter logistic equation to generate IC50 values for each compound.
For orientation: ATP-based viability assays read luminescence as a measure of living cells.
The term IC50 denotes the concentration at which inhibition is half-maximal. Consider `CN1CCN(c2ccccc2CNC(=O)c2ccc(F)c(NC(=O)c3cnc4cc(-c5ccc(C(=O)NCCO)c(F)c5)ccn34)c2)CC1` [Example 1.2, 7-(3-Fluoro-4-(2-hydroxyethylcarbamoyl)phenyl)-N-(2-fluoro-5-(2-(4-methylpiperazin-1-yl)benzylcarbamoyl)phenyl)imidazo[1,2-a]pyridine-3-carboxamide], for which the IC50 was determined as 40 nM. `CN(C)CCCOc1ccc(-c2ccn3c(C(=O)Nc4cc(C(=O)NCc5ccc(F)c(F)c5)ccc4F)cnc3c2)cn1` [Example 1.9, N-(5-(3,4-difluorobenzylcarbamoyl)-2-fluorophenyl)-7-(6-(3-(dimethylamino)propoxy)pyridine-3-yl)imidazo[1,2-a]pyridine-3-carboxamide]: the IC50 was determined as 11 nM. In the case of `C[C@@H]1CCC[C@H](C)N1CCNC(=O)c1ccc(F)c(NC(=O)c2cnc3cc(-c4cccnc4)ccn23)c1` [Example 1.16, 1-(2-(4-fluoro-3-(7-(pyridine-3-yl)imidazo[1,2-a]pyridine-3-carboxamido)benzamido)ethyl)-2,6-cis-dimethylpiperidinium chloride] it was 27 nM. In the case of `Cc1ncc(C(=O)NCc2ccccc2N2CCN(C)CC2)cc1NC(=O)c1cnc2cc(-c3ccnn3C)ccn12` [Example 1.19, 1-methyl-4-(2-((6-methyl-5-(7-(1-methyl-1H-pyrazol-5-yl)imidazo[1,2-a]pyridine-3-carboxamido)nicotinamido)methyl)phenyl)piperazin-1-ium chloride], the IC50 was determined as 74 nM. To `C[C@@H]1CCC[C@H](C)N1CCNC(=O)c1ccc(F)c(NC(=O)c2cnc3cc(-c4cnn(C)c4)ccn23)c1` [Example 1.20, 7-(1-Methyl-1H-pyrazol-4-yl)-imidazo[1,2-a]pyridine-3-carboxylic acid {5-[2-(2,6-cis-dimethyl-piperidin-1-yl)-ethylcarbamoyl]-2-fluoro-phenyl}-amide hydrochloride] belongs 13 nM.

As to `CN(C)CCCOc1ccc(-c2ccn3c(C(=O)Nc4cc(C(=O)NCCOC(C)(C)C)ccc4F)cnc3c2)cn1` [Example 2.1, N-(5-(2-tert-Butoxyethylcarbamoyl)-2-fluorophenyl)-7-(6-(3-(dimethylamino)propoxy)pyridin-3-yl)imidazo[1,2-a]pyridine-3-carboxamide], the IC50 came to 3 nM.

`COCCN(C)Cc1cncc(-c2ccn3c(C(=O)Nc4cc(C(=O)NC[C@H]5CCC(C)(C)O5)ccc4F)cnc3c2)c1` [Example 2.6, (R)-N-(5-(((5,5-dimethyltetrahydrofuran-2-yl)methyl)carbamoyl)-2-fluorophenyl)-7-(5-(((2-methoxyethyl)(methyl)amino)methyl)pyridin-3-yl)imidazo[1,2-a]pyridine-3-carboxamide]: the IC50 was found to be 16 nM. `O=C(NCc1ccc(F)c(F)c1)c1ccc(F)c(NC(=O)c2cnc3cc(-c4ccc(OCCN5CCCC5)nc4)ccn23)c1` [Example 3.1, N-(5-(3,4-Difluorobenzylcarbamoyl)-2-fluorophenyl)-7-(6-(2-(pyrrolidin-1-yl)ethoxy)pyridin-3-yl)imidazo[1,2-a]pyridine-3-carboxamide hydrochloride]: the IC50 is 13 nM. As to `CC(C)(C)OCCNC(=O)c1ccc(F)c(NC(=O)c2cnc3cc(-c4ccc(OCCN5CCCC5)nc4)ccn23)c1` [Example 3.2, N-(5-((2-(tert-Butoxy)ethyl)carbamoyl)-2-fluorophenyl)-7-(6-(2-(pyrrolidin-1-yl)ethoxy)pyridin-3-yl)imidazo[1,2-a]pyridine-3-carboxamide], the IC50 is 15 nM. To `CN1CCC(Oc2ccc(-c3ccn4c(C(=O)Nc5cc(C(=O)NCC6CCC(C)(C)O6)ccc5F)cnc4c3)cn2)CC1` (stereo not drawn) [Example 3.3, N-(5-(((5,5-dimethyltetrahydrofuran-2-yl)methyl)carbamoyl)-2-fluorophenyl)-7-(6-((1-methylpiperidin-4-yl)oxy)pyridin-3-yl)imidazo[1,2-a]pyridine-3-carboxamide] belongs 10 nM; to `Cc1ccc(C(=O)NCc2ccccc2N2CCN(C)CC2)cc1NC(=O)c1cnn2cc(-c3ccnn3C)ccc12` [Example 4.1, 6-(1-Methyl-1H-pyrazol-5-yl)-N-(2-methyl-5-(2-(4-methylpiperazin-1-yl)benzylcarbamoyl)phenyl)pyrazolo[1,5-a]pyridine-3-carboxamide hydrochloride], 12 nM; to `CC(C)(O)CCc1ccn2c(C(=O)Nc3cc(C(=O)NCc4ccc(F)c(F)c4)ccc3F)cnc2c1` [Example 6.1, N-(5-(3,4-Difluorobenzylcarbamoyl)-2-fluorophenyl)-7-(3-hydroxy-3-methylbutyl)imidazo[1,2-a]pyridine-3-carboxamide], 41 nM. `CC(C)(CO)NC(=O)c1ccc(-c2ccn3c(C(=O)Nc4cc(C(=O)NCCN5CCCC5(C)C)ccc4F)cnc3c2)cc1F` [Example 7.5, N-(5-(2-(2,2-Dimethylpyrrolidin-1-yl)ethylcarbamoyl)-2-fluorophenyl)-7-(3-fluoro-4-(1-hydroxy-2-methylpropan-2-ylcarbamoyl)phenyl)imidazo[1,2-a]pyridine-3-carboxamide]: the IC50 was 8 nM.

Regarding `Cc1ncc(C(=O)NCCN2CCCC2(C)C)cc1NC(=O)c1cnn2cc(-c3ccc(C(=O)NC(C)(C)CO)c(F)c3)ccc12` [Example 7.6, N-(5-(2-(2,2-Dimethylpyrrolidin-1-yl)ethylcarbamoyl)-2-methylpyridin-3-yl)-6-(3-fluoro-4-(1-hydroxy-2-methylpropan-2-ylcarbamoyl)phenyl)pyrazolo[1,5-a]pyridine-3-carboxamide], the 50% inhibitory concentration (IC50) is 182 nM. To `O=C(NCc1ccc(F)c(F)c1)c1ccc(F)c(NC(=O)c2cnc3cc(-c4ccc(C(=O)NCCCN5CCOCC5)c(F)c4)ccn23)c1` [Example 8.1, N-(5-(3,4-Difluorobenzylcarbamoyl)-2-fluorophenyl)-7-(3-fluoro-4-(3-morpholinopropylcarbamoyl)phenyl)imidazo[1,2-a]pyridine-3-carboxamide hydrochloride] belongs 4 nM. Regarding `C[C@@H]1CCC[C@H](C)N1CCNC(=O)c1ccc(F)c(NC(=O)c2cnc3cc(-c4ccc(C(=O)NC(C)(C)CO)c(F)c4)ccn23)c1` [Example 8.2, N-(5-(2-(2,6-cis-Dimethylpiperidin-1-yl)ethylcarbamoyl)-2-fluorophenyl)-7-(3-fluoro-4-(1-hydroxy-2-methylpropan-2-ylcarbamoyl)phenyl)imidazo[1,2-a]pyridine-3-carboxamide], the concentration for half-maximal inhibition (IC50) was determined as 8 nM. In the case of `CN1CCN(c2ccccc2CNC(=O)c2ccc(F)c(NC(=O)c3cnc4cc(-c5cc(F)cc(C(=O)NCCO)c5)ccn34)c2)CC1` [Example 8.4, N-(2-Fluoro-5-(2-(4-methylpiperazin-1-yl)benzylcarbamoyl)phenyl)-7-(3-fluoro-5-(2-hydroxyethylcarbamoyl)phenyl)imidazo[1,2-a]pyridine-3-carboxamide] it was 112 nM; in that of `CCCC1CCN(CCNC(=O)c2ccc(F)c(NC(=O)c3cnc4cc(-c5cnn(C)c5)ccn34)c2)C1` (stereo not drawn) [Example 9.2, N-(2-Fluoro-5-((2-(3-propylpyrrolidin-1-yl)ethyl)carbamoyl)phenyl)-7-(1-methyl-1H-pyrazol-4-yl)imidazo[1,2-a]pyridine-3-carboxamide], 11 nM; in that of `CC1CC(C)CN(CCNC(=O)c2ccc(F)c(NC(=O)c3cnc4cc(-c5cnn(C)c5)ccn34)c2)C1` (stereo not drawn) [Example 9.4, N-(5-((2-(3,5-Dimethylpiperidin-1-yl)ethyl)carbamoyl)-2-fluorophenyl)-7-(1-methyl-1H-pyrazol-4-yl)imidazo[1,2-a]pyridine-3-carboxamide], 128 nM. To `Cc1ncc(C(=O)NCCN2CCCCC2(C)C)cc1NC(=O)c1cnn2cc(-c3cnn(C)c3)ccc12` [Example 9.13, N-(5-((2-(2,2-Dimethylpiperidin-1-yl)ethyl)carbamoyl)-2-methylpyridin-3-yl)-6-(1-methyl-1H-pyrazol-4-yl)pyrazolo[1,5-a]pyridine-3-carboxamide] belongs 7 nM; to `CC[C@@H]1CN(CCNC(=O)c2ccc(F)c(NC(=O)c3cnc4cc(-c5cnn(C)c5)ccn34)c2)[C@H]1CC` [Example 9.15, N-(5-((2-((2S,3R)-2,3-diethylazetidin-1-yl)ethyl)carbamoyl)-2-fluorophenyl)-7-(1-methyl-1H-pyrazol-4-yl)imidazo[1,2-a]pyridine-3-carboxamide], 2 nM.
